Earlier results, collected in patent US8759371B2, “Heterocyclic compounds and their uses” (Amgen Inc., priority 2010, dated 2014).

Key:
[1] = test system: rheumatoid arthritis model; details: in vivo
[2] = test system: systemic lupus erythematosis model; details: in vivo
[3] = test system: passive cutaneous anaphylaxis (PCA); details: absence of functional delta (IC 87114 and p110δ D910A mice)
p110δ = biological target: T1, p110δ (Homo sapiens, UniProt O00329)
T1 sequence (O00329 1-1044): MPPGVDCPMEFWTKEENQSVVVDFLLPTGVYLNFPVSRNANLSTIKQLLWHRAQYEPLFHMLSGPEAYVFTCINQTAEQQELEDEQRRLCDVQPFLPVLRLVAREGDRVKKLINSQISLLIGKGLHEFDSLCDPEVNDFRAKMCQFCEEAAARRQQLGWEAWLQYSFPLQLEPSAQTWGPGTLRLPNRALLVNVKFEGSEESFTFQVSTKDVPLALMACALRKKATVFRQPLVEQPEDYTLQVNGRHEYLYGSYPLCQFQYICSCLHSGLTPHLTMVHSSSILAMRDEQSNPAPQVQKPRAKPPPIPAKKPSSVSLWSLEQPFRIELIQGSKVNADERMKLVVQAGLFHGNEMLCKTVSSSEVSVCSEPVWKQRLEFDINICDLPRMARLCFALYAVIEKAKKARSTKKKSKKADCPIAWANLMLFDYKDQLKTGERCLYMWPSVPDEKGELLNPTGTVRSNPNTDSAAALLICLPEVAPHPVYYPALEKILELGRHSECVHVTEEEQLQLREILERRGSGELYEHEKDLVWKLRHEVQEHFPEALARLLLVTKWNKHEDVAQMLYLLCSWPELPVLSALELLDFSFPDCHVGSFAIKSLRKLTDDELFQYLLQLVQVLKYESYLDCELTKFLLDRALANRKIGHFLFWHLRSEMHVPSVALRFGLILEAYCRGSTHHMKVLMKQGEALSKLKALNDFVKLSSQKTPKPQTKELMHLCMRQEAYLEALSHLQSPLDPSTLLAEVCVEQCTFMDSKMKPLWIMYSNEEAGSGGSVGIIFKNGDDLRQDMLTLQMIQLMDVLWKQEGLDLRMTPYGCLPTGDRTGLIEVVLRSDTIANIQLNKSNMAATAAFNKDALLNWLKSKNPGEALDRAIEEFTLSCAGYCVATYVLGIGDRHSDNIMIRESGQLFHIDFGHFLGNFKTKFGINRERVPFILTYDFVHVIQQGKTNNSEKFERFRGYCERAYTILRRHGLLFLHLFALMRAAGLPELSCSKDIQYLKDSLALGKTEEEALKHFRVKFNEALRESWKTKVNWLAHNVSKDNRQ

[4] = test system: ovalbumin-induced airway inflammation

Structure (SMILES)	efficacy in mouse model of rheumatoid arthritis [1]	onset of disease in model of systemic lupus erythematosis [2]	passive cutaneous anaphylaxis (PCA) [3]	activity against any protein kinases tested (protein kinases)	inhibits p110δ (p110δ)	inflammation and disease in murine model of asthma [4]
O=C1NC(=O)/C(=C\c2ccc3nccnc3c2)S1 [AS 605240]	efficacious	delay onset of disease	–	–	–	–
Cc1ccccc1-n1c(Cn2cnc3c(N)ncnc32)nc2cccc(C)c2c1=O [IC87114]	–	–	significantly reduced	no activity	high nanomolar range (triple digit)	significantly ameliorate inflammation and disease
